Read-outs that look alike come from different tables or passages of the source.
System: recombinant NL4-3 virus (Renilla luciferase) in MT-2 cells
Assay: HIV cell culture assay (antiviral activity, luciferase readout in infected MT-2 cells)
Format: cell-based
In short: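 Nef-deleted NL4-3 carrying Renilla luciferase, produced by 293T transfection, used to infect MT-2 cells for 4–5 days with serial compound dilutions. Live-cell luciferase signal read as infection marker; EC50 from exponential median-effect equation.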

[1] = Renilla, NL43, read-out: Activity, antiviral activity class, recombinant NL4-3 Renilla luciferase virus in MT-2 cells
[2] = Renilla, NL43, recombinant NL4-3 Renilla luciferase virus in MT-2 cells

| Structure (SMILES) | EC50 [1] [nM] | EC50 [2] [nM] | EC50 (read-out: Activity, antiviral activity class, recombinant NL4-3 Renilla luciferase virus in MT-2 cells) [nM] |
| --- | --- | --- | --- |
| Cc1ccccc1S(=O)(=O)NC(=O)N[C@@H](Cc1ccccc1)C(=O)N(C)c1ccc2ncccc2c1 [Example CA-71, (S)—N-methyl-3-phenyl-N-(quinolin-6-yl)-2-(3-(o-tolylsulfonyl)ureido)propanamide] | < 100 |  |  |
| CCN(C(=O)[C@H](Cc1ccccc1)NC(=O)NS(=O)(=O)c1cccc(-c2ccoc2)c1)c1ccc(OC)cc1 [Example 121, (S)—N-ethyl-2-(3-((3-(furan-3-yl)phenyl)sulfonyl)ureido)-N-(4-methoxyphenyl)-3-phenylpropanamide] | < 100 |  |  |
| Cc1ccccc1S(=O)(=O)NC(=O)N[C@@H](Cc1cc(F)cc(F)c1)C(=O)N(C)c1ccc2c(c1)OCO2 [Example 67, (S)—N-(benzo[d][1,3]dioxol-5-yl)-3-(3,5-difluorophenyl)-N-methyl-2-(3-(o-tolylsulfonyl)ureido)propanamide] | 100 to 1000 |  |  |
| Cc1ccccc1CS(=O)(=O)NC(=O)N[C@@H](Cc1ccccc1)C(=O)N(C)c1ccc2c(c1)OCO2 [Example 104, (S)—N-(benzo[d][1,3]dioxol-5-yl)-N-methyl-2-(3-((2-methylbenzyl)sulfonyl)ureido)-3-phenylpropanamide] | 100 to 1000 | 620 |  |
| CN(C(=O)[C@H](Cc1ccccc1)NC(=O)NS(=O)(=O)c1ccccc1F)c1ccc2c(c1)OC(F)(F)O2 [Example 34, (S)—N-(2,2-difluorobenzo[d][1,3]dioxol-5-yl)-2-(3-((2-fluorophenyl)sulfonyl)ureido)-N-methyl-3-phenylpropanamide] | 100 to 1000 |  |  |
| COc1ccc(N(CC(C)C)C(=O)[C@H](Cc2ccccc2)NC(=O)NS(=O)(=O)c2ccccc2C)cc1 [Example ZY-6, (S)—N-isobutyl-N-(4-methoxyphenyl)-3-phenyl-2-(3-(o-tolylsulfonyl)ureido)propanamide] | 1000 to 10000 |  |  |
| CCN(C(=O)[C@H](Cc1ccccc1)NC(=O)NS(=O)(=O)c1ccccc1C)c1ccc2nc(C)ccc2c1 [Example CA-83, (S)—N-ethyl-N-(2-methylquinolin-6-yl)-3-phenyl-2-(3-(o-tolylsulfonyl)ureido)propanamide] | < 100 |  |  |
| COc1ccc(N(C)C(=O)[C@H](Cn2cncn2)NC(=O)NS(=O)(=O)c2ccccc2C)cc1 [Example 193, (S)—N-(4-methoxyphenyl)-N-methyl-2-(3-(o-tolylsulfonyl)ureido)-3-(1H-1,2,4-triazol-1-yl)propanamide] |  | > 100000 |  |
| CCc1cccc(S(=O)(=O)NC(=O)N[C@@H](Cc2ccccc2)C(=O)N(CC)c2ccc(OC)cc2)c1 [Example 141, (S)—N-ethyl-2-(3-((3-ethylphenyl)sulfonyl)ureido)-N-(4-methoxyphenyl)-3-phenylpropanamide] | < 100 |  |  |
| COc1ccc(N(Cc2ccccc2)C(=O)[C@H](Cc2ccccc2)NC(=O)NS(=O)(=O)c2ccccc2C)cc1 [Example ZY-3, (S)—N-benzyl-N-(4-methoxyphenyl)-3-phenyl-2-(3-(o-tolylsulfonyl)ureido)propanamide] | 1000 to 10000 | 3610 |  |
| CCOc1ccc(C[C@H](NC(=O)NS(=O)(=O)c2ccccc2C)C(=O)N(C)c2ccc3c(c2)OCO3)cc1 [Example 52, (S)—N-(benzo[d][1,3]dioxol-5-yl)-3-(4-ethoxyphenyl)-N-methyl-2-(3-(o-tolylsulfonyl)ureido)propanamide] | 1000 to 10000 | 6230 |  |
| CC(C)S(=O)(=O)NC(=O)N[C@@H](Cc1ccccc1)C(=O)N(C)c1ccc2c(c1)OCO2 [Example 43, (S)—N-(benzo[d][1,3]dioxol-5-yl)-2-(3-(isopropylsulfonyl)ureido)-N-methyl-3-phenylpropanamide] | 100 to 1000 |  |  |
| CN(C(=O)[C@H](Cc1ccccc1)NC(=O)NS(=O)(=O)c1ccccc1-c1cnn(C)c1)c1ccc2c(c1)OCO2 [Example 49, (S)—N-(benzo[d][1,3]dioxol-5-yl)-N-methyl-2-(3-((2-(1-methyl-1H-pyrazol-4-yl)phenyl)sulfonyl)ureido)-3-phenylpropanamide] |  | 1340 | 1000 to 10000 |
| CCN(CC)CCN(C)C(=O)[C@H](Cc1ccccc1)NC(=O)NS(=O)(=O)c1ccccc1 [Example 96, (S)—N-(2-(diethylamino)ethyl)-N-methyl-3-phenyl-2-(3-(phenylsulfonyl)ureido)propanamide] |  | > 100000 |  |
| Cc1ccccc1S(=O)(=O)NC(=O)N[C@@H](Cc1ccccc1)C(=O)N1CCc2sccc2C1 [Example 186, (S)—N-((1-(6,7-dihydrothieno[3,2-c]pyridin-5(4H)-yl)-1-oxo-3-phenylpropan-2-yl)carbamoyl)-2-methylbenzenesulfonamide] | 1000 to 10000 | 3590 |  |
| CCN(C(=O)[C@H](Cc1ccccc1)NC(=O)NS(=O)(=O)c1ccccc1F)c1ccc(OC)cc1 [Example 117, (S)—N-ethyl-2-(3-((2-fluorophenyl)sulfonyl)ureido)-N-(4-methoxyphenyl)-3-phenylpropanamide] | < 100 |  |  |
| Cc1ccccc1S(=O)(=O)NC(=O)N[C@@H](Cc1ccccc1)C(=O)N(C)c1ccc2scnc2c1 [Example CA-88, (S)—N-(benzo[d]thiazol-5-yl)-N-methyl-3-phenyl-2-(3-(o-tolylsulfonyl)ureido)propanamide] | < 100 | 60 |  |

| Structure (SMILES) | EC50 [1] [nM] | EC50 [2] [nM] | EC50 (read-out: Activity, antiviral activity class, recombinant NL4-3 Renilla luciferase virus in MT-2 cells) [nM] |
| --- | --- | --- | --- |
| Cc1ccccc1C[C@H](NC(=O)NS(=O)(=O)c1ccccc1C)C(=O)N(C)c1ccc2c(c1)OCO2 [Example 53, (S)—N-(benzo[d][1,3]dioxol-5-yl)-N-methyl-3-(o-tolyl)-2-(3-(o-tolylsulfonyl)ureido)propanamide] | 100 to 1000 |  |  |
| Cc1ccccc1S(=O)(=O)NC(=O)N[C@@H](Cc1ccccc1)C(=O)N(C)c1nc2ccccc2s1 [Example 176, (S)—N-(benzo[d]thiazol-2-yl)-N-methyl-3-phenyl-2-(3-(o-tolylsulfonyl)ureido)propanamide] | 10000 to 100000 |  |  |
| CN(C(=O)[C@H](Cc1ccccc1)NC(=O)NS(=O)(=O)c1cccc(Cl)c1Cl)c1ccc2c(c1)OCO2 [Example 15, (S)—N-(benzo[d][1,3]dioxol-5-yl)-2-(3-((2,3-dichlorophenyl)sulfonyl)ureido)-N-methyl-3-phenylpropanamide] | < 100 |  |  |
| COc1ccc(C[C@H](NC(=O)NS(=O)(=O)c2ccccc2C)C(=O)N(C)c2ccc3c(c2)OCO3)cc1 [Example 56, (S)—N-(benzo[d][1,3]dioxol-5-yl)-3-(4-methoxyphenyl)-N-methyl-2-(3-(o-tolylsulfonyl)ureido)propanamide] | 1000 to 10000 |  |  |
| CN(C(=O)[C@H](Cc1ccccc1)NC(=O)N(C)S(=O)(=O)c1ccccc1Br)c1ccc2c(c1)OCO2 [Example 47, (S)—N-(benzo[d][1,3]dioxol-5-yl)-2-(3-((2-bromophenyl)sulfonyl)-3-methylureido)-N-methyl-3-phenylpropanamid] | 1000 to 10000 |  |  |
| CN(C(=O)[C@H](Cc1ccccc1)NC(=O)NS(=O)(=O)c1ccccc1)c1cccc(F)c1 [Example 93] | 1000 to 10000 | 1590 |  |
| CN(C(=O)[C@H](Cc1ccccc1)NC(=O)NS(=O)(=O)CCc1ccccc1)c1ccc2c(c1)OCO2 [Example 24, (S)—N-(benzo[d][1,3]dioxol-5-yl)-N-methyl-2-(3-(phenethylsulfonyl)ureido)-3-phenylpropanamide] | 100 to 1000 |  |  |
| CCN(C(=O)[C@H](Cc1ccccc1)NC(=O)NS(=O)(=O)c1c(F)cccc1F)c1ccc(OC)cc1 [Example 118, (S)-2-(3-((2,6-difluorophenyl)sulfonyl)ureido)-N-ethyl-N-(4-methoxyphenyl)-3-phenylpropanamide] | < 100 | 40 |  |
| Cc1ccccc1S(=O)(=O)NC(=O)N[C@@H](Cc1ccccc1)C(=O)N1CCCc2ccccc21 [Example 170, (S)—N-((1-(3,4-dihydroquinolin-1(2H)-yl)-1-oxo-3-phenylpropan-2-yl)carbamoyl)-2-methylbenzenesulfonamide] | 1000 to 10000 |  |  |
| CN(C(=O)[C@H](Cc1ccccc1)NC(=O)NS(=O)(=O)c1ccccc1)c1ccc(Cl)cc1 [Example 88] | 100 to 1000 | 450 |  |
| CN(C(=O)[C@H](Cc1ccccc1)NC(=O)NS(=O)(=O)c1ccccc1-c1ccsc1)c1ccc2c(c1)OCO2 [Example 132, (S)—N-(benzo[d][1,3]dioxol-5-yl)-N-methyl-3-phenyl-2-(3-((2-(thiophen-3-yl)phenyl)sulfonyl)ureido)propanamide] | 10000 to 100000 |  |  |
| CN(C(=O)[C@H](Cc1ccccc1)NC(=O)NS(=O)(=O)c1ccccc1Cl)c1ccc2c(c1)OCO2 [Example 7, (S)—N-(benzo[d][1,3]dioxol-5-yl)-2-(3-((2-chlorophenyl)sulfonyl)ureido)-N-methyl-3-phenylpropanamide] | < 100 |  |  |
| COC(=O)Nc1ccc(N(C)C(=O)[C@H](Cc2ccccc2)NC(=O)NS(=O)(=O)c2ccccc2C)cc1 [Example CA-93, (S)-methyl (4-(N-methyl-3-phenyl-2-(3-(o-tolylsulfonyl)ureido)propanamido)phenyl)carbamate] | < 100 |  |  |
| Cc1ccccc1S(=O)(=O)NC(=O)N[C@@H](Cc1cc(F)cc(F)c1)C(=O)N(C)c1ccc2cccnc2c1 [Example CA-104, (S)-3-(3,5-difluorophenyl)-N-methyl-N-(quinolin-7-yl)-2-(3-(o-tolylsulfonyl)ureido)propanamide] | 100 to 1000 |  |  |
| CN(C(=O)[C@H](Cc1ccccc1)NC(=O)NS(=O)(=O)c1ccccc1-c1ccc(F)nc1)c1ccc2c(c1)OCO2 [Example 148, (S)—N-(benzo[d][1,3]dioxol-5-yl)-2-(3-((2-(6-fluoropyridin-3-yl)phenyl)sulfonyl)ureido)-N-methyl-3-phenylpropanamide] | 1000 to 10000 |  |  |
| CN(C(=O)[C@H](Cc1ccccc1)NC(=O)NS(=O)(=O)c1ccccc1)c1ccc2c(c1)CCC2 [Example 208, (S)—N-(2,3-dihydro-1H-inden-5-yl)-N-methyl-3-phenyl-2-(3-(phenylsulfonyl)ureido)propanamide] | 100 to 1000 |  |  |
| Cc1ccccc1S(=O)(=O)NC(=O)N[C@@H](Cc1ccccc1)C(=O)N(C)c1ccc(Cl)cc1 [Example 164, (S)—N-(4-chlorophenyl)-N-methyl-3-phenyl-2-(3-(o-tolylsulfonyl)ureido)propanamide] | 100 to 1000 |  |  |

Source: patent US10035760B2, “Inhibitors of human immunodeficiency virus replication” (priority 2013, dated 2018)
